According to patent US12528802B2, “Heterocyclic compound” (Takeda Pharmaceutical Company Limited, priority 2019, dated 2026):

biological target: T1, glucosylceramide synthase (Homo sapiens, UniProt Q16739); assay: Glucosylceramide synthase (GCS) enzyme assay, microsome fraction, C8 glucosylceramide quantified by Rapidfire MS/MS; assay type: biochemical; conditions: test compound 10 μM; 1.7 μM UDP-glucose, 3 μM C8 ceramide; room temperature 60 min
T1 construct: made in house; host or cells: Expi293F cells (transient expression, pcDNA3.3-TOPO vector); microsome fraction used as enzyme source
T1 sequence (Q16739 1-394): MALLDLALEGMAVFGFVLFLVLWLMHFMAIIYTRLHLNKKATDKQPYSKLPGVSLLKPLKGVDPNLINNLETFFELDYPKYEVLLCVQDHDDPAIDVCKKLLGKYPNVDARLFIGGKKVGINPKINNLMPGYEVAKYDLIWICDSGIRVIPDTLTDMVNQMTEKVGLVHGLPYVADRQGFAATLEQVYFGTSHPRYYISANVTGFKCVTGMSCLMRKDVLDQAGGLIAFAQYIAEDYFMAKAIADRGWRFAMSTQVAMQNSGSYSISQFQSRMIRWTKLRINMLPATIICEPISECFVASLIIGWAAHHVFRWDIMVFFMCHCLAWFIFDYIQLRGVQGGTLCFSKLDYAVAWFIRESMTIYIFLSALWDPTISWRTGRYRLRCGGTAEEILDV
How it was run: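 Test compound, 10 μM final, was run against human GCS from transfected Expi293F microsome fractions, using substrate solution of 6 μM C8 ceramide (in DOPC liposomes) plus 3.4 μM UDP-glucose, pH 7.5 Tris buffer, 60 min, room temperature. Product C8 glucosylceramide measured by Rapidfire MS/MS against an internal standard, % inhibition referenced to no-enzyme and DMSO wells.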

GCS enzyme inhibitory rate at 10 μM (%) (% of control)	Compound
95	O=C1c2ccnc(-c3ccc(F)cc3OCC(F)(F)F)c2CN1c1ccc(C2(O)CCOC2)c(F)c1 (racemic) [Example 238, rac-2-[3-fluoro-4-(3-hydroxyoxolan-3-yl)phenyl]-4-[4-fluoro-2-(2,2,2-trifluoroethoxy)phenyl]-2,3-dihydro-1H-pyrrolo[3,4-c]pyridin-1-one]
97	O=C1c2ccnc(-c3ccc(F)cc3OCC(F)(F)F)c2CN1c1ccc(C2(O)CCOC2)cn1 (single isomer, unassigned) [Example 301, (R or S)-4-[4-fluoro-2-(2,2,2-trifluoroethoxy)phenyl]-2-[5-(3-hydroxyoxolan-3-yl)pyridin-2-yl]-2,3-dihydro-1H-pyrrolo [3,4-c]pyridin-1-one]

same assay, conditions: test compound 10 μM; 1.7 μM UDP-glucose, 3 μM C8 ceramide; room temperature 60 min; read-out: GCS enzyme inhibitory rate at 10 μM (%) (% of control)

inhibition at 10 µM [%]	Compound
100	O=C1c2ccnc(-c3ccccc3OCC(F)(F)F)c2CN1c1ccc(C2(O)CC2)cc1 [Example 222, 2-[4-(1-hydroxycyclopropyl)phenyl]-4-[2-(2,2,2-trifluoroethoxy)phenyl]-2,3-dihydro-1H-pyrrolo[3,4-c]pyridin-1-one]
90	O=C(c1ccc(N2Cc3c(ccnc3-c3ccc(F)cc3OCC(F)(F)F)C2=O)cc1)N1CCOCC1 [Example 152, 4-[4-fluoro-2-(2,2,2-trifluoroethoxy)phenyl]-2-[4-(morpholine-4-carbonyl)phenyl]-2,3-dihydro-1H-pyrrolo[3,4-c]pyridin-1-one]
52	Cn1nc(N2Cc3c(ccnc3-c3ccc(F)cc3OCC(F)(F)F)C2=O)cc1C#N [Example 318, 3-{4-[4-fluoro-2-(2,2,2-trifluoroethoxy)phenyl]-1-oxo-1,3-dihydro-2H-pyrrolo [3,4-c]pyridin-2-yl}-1-methyl-1H-pyrazole-5-carbonitrile]
99	O=C(c1ccc(N2Cc3c(ccnc3-c3ccc(F)cc3OCC(F)(F)F)C2=O)cc1)N1CCC(F)(F)CC1 [Example 182, 2-[4-(4,4-difluoropiperidine-1-carbonyl)phenyl]-4-[4-fluoro-2-(2,2,2-trifluoroethoxy)phenyl]-2,3-dihydro-1H-pyrrolo[3,4-c]pyridin-1-one]
85	O=C1c2ccnc(-c3ccccc3OCC(F)(F)F)c2CN1c1ccc(C2(O)CNC2)cc1 [Example 259, 2-[4-(3-hydroxyazetidin-3-yl)phenyl]-4-[2-(2,2,2-trifluoroethoxy)phenyl]-2,3-dihydro-1H-pyrrolo[3,4-c]pyridin-1-one]
99	O=C1c2ccnc(-c3ccc(F)cc3OCC(F)(F)F)c2CN1c1ccc(O[C@@H]2CCOC2)cc1 [Example 164, 4-[4-fluoro-2-(2,2,2-trifluoroethoxy)phenyl]-2-(4-{[(3R)-oxolan-3-yl]oxy}phenyl)-2,3-dihydro-1H-pyrrolo[3,4-c]pyridin-1-one]
92	Fc1ccc(N2Cc3ccnc(-c4ccc(F)cc4OCC(F)(F)F)c3C2)cc1 [Example 111, 2-(4-fluorophenyl)-4-[4-fluoro-2-(2,2,2-trifluoroethoxy)phenyl]-2,3-dihydro-1H-pyrrolo[3,4-c]pyridine]
98	COC1(c2ccc(N3Cc4c(ccnc4-c4ccc(F)cc4OCC(F)(F)F)C3=O)cc2)COC1 [Example 178, 4-[4-fluoro-2-(2,2,2-trifluoroethoxy)phenyl]-2-[4-(3-methoxyoxetan-3-yl)phenyl]-2,3-dihydro-1H-pyrrolo[3,4-c]pyridin-1-one]
89	CS(=O)(=O)c1ccc(N2Cc3c(ccnc3-c3ccc(F)cc3OCC(F)(F)F)C2=O)cc1 [Example 88, 4-[4-fluoro-2-(2,2,2-trifluoroethoxy)phenyl]-2-[4-(methanesulfonyl)phenyl]-2,3-dihydro-1H-pyrrolo[3,4-c]pyridin-1-one]
97	O=C1c2ccnc(-c3ccc(F)cc3OCC(F)(F)F)c2CN1c1ccc(C(O)C(F)(F)F)cc1 (single isomer, unassigned) [Example 285, (R or S)-4-[4-fluoro-2-(2,2,2-trifluoroethoxy)phenyl]-2-[4-(2,2,2-trifluoro-1-hydroxyethyl)phenyl]-2,3-dihydro-1H-pyrrolo [3,4-c]pyridin-1-one]
99	CC(C)(O)c1ccc(N2Cc3c(ccnc3-c3ccc(F)cc3OCC(F)(F)F)C2=O)nc1 [Example 234, 4-[4-fluoro-2-(2,2,2-trifluoroethoxy)phenyl]-2-[5-(2-hydroxypropan-2-yl)pyridin-2-yl]-2,3-dihydro-1H-pyrrolo[3,4-c]pyridin-1-one]
87	O=C(c1ccc(N2Cc3c(ccnc3-c3ccc(F)cc3OCC(F)(F)F)C2=O)cc1)N1CCC1 [Example 166, 2-[4-(azetidine-1-carbonyl)phenyl]-4-[4-fluoro-2-(2,2,2-trifluoroethoxy)phenyl]-2,3-dihydro-1H-pyrrolo[3,4-c]pyridin-1-one]
75	O=C1c2cnn(-c3ccc(F)cc3OCC(F)(F)F)c2CN1c1ccc(F)cc1 [Example 79, 5-(4-fluorophenyl)-1-[4-fluoro-2-(2,2,2-trifluoroethoxy)phenyl]-5,6-dihydropyrrolo[3,4-c]pyrazol-4(1H)-one]
99	CC(C)(O)c1ccc(N2Cc3c(ccnc3-c3c(F)cc(F)cc3OCC(F)(F)F)C2=O)cc1 [Example 320, 4-[2,4-difluoro-6-(2,2,2-trifluoroethoxy)phenyl]-2-[4-(2-hydroxypropan-2-yl)phenyl]-2,3-dihydro-1H-pyrrolo[3,4-c]pyridin-1-one]
98	CS(=O)(=O)c1ccc(N2Cc3c(ccnc3-c3ccccc3OCC(F)(F)F)C2=O)cc1 [Example 161, 2-[4-(methanesulfonyl)phenyl]-4-[2-(2,2,2-trifluoroethoxy)phenyl]-2,3-dihydro-1H-pyrrolo[3,4-c]pyridin-1-one]

The next lines start with the compound.

Compound	inhibition at 10 µM [%]
O=C1c2ccnc(-c3ccc(F)cc3OCC3CC3)c2CN1c1ccc(OC(F)F)cc1 [Example 129, 4-[2-(cyclopropylmethoxy)-4-fluorophenyl]-2-[4-(difluoromethoxy)phenyl]-2,3-dihydro-1H-pyrrolo[3,4-c]pyridin-1-one]	99
CC(C)(O)c1ccc(N2Cc3c(cn(C(F)F)c(=O)c3-c3ccccc3OCC(F)(F)F)C2=O)cc1 [Example 368, 5-(difluoromethyl)-2-[4-(2-hydroxypropan-2-yl)phenyl]-7-[2-(2,2,2-trifluoroethoxy)phenyl]-1H-pyrrolo[3,4-c]pyridine-3,6(2H,5H)-dione]	100
CC(C)(O)COc1ccc(N2Cc3c(ccnc3-c3ccccc3OCC(F)F)C2=O)cc1 [Example 366, 4-[2-(2,2-difluoroethoxy)phenyl]-2-[4-(2-hydroxy-2-methylpropoxy)phenyl]-2,3-dihydro-1H-pyrrolo [3,4-c]pyridin-1-one]	99
CC(C)(C#N)COc1cc(F)ccc1-c1nccc2c1CN(c1ccc(OC(F)F)nc1)C2=O [Example 171, 3-(2-{2-[6-(difluoromethoxy)pyridin-3-yl]-1-oxo-2,3-dihydro-1H-pyrrolo[3,4-c]pyridin-4-yl}-5-fluorophenoxy)-2,2-dimethylpropanenitrile]	52
CC(C)(O)c1ccc(N2Cc3c(ncnc3-c3ccccc3OCC(F)(F)F)C2=O)cc1 [Example 200, 6-[4-(2-hydroxypropan-2-yl)phenyl]-4-[2-(2,2,2-trifluoroethoxy)phenyl]-5,6-dihydro-7H-pyrrolo[3,4-d]pyrimidin-7-one]	95
O=C1c2ccnc(-c3ccccc3OCC(F)(F)F)c2CN1c1ccc(C2(O)CC(O)C2)cc1 (stereo not drawn) [Example 228, (cis or trans)-2-[4-(1,3-dihydroxycyclobutyl)phenyl]-4-[2-(2,2,2-trifluoroethoxy)phenyl]-2,3-dihydro-1H-pyrrolo[3,4-c]pyridin-1-one]	86
COC(=O)c1ccc(N2CC3=C(OC(C)CN=C3c3ccccc3OCC(F)(F)F)C2=O)cc1 (racemic) [Example 332, rac-methyl 4-{2-methyl-8-oxo-5-[2-(2,2,2-trifluoroethoxy)phenyl]-2,3,6,8-tetrahydro-7H-pyrrolo [3,4-f][1,4]oxazepin-7-yl}benzoate]	96
O=C1c2ccnc(-c3ccc(F)cc3OCC(F)(F)F)c2CN1c1ccc(C2(O)CCOCC2)cn1 [Example 257, 4-[4-fluoro-2-(2,2,2-trifluoroethoxy)phenyl]-2-[5-(4-hydroxyoxan-4-yl)pyridin-2-yl]-2,3-dihydro-1H-pyrrolo[3,4-c]pyridin-1-one]	99
O=C1c2ccnc(-c3ccccc3OCC(F)(F)F)c2CN1c1ccc(C2(O)COC2)cn1 [Example 252, 2-[5-(3-hydroxyoxetan-3-yl)pyridin-2-yl]-4-[2-(2,2,2-trifluoroethoxy)phenyl]-2,3-dihydro-1H-pyrrolo[3,4-c]pyridin-1-one]	98
CN(C)C(=O)c1ccc(N2Cc3ccnc(-c4ccc(F)cc4OCC(F)(F)F)c3C2)cc1 [Example 141, 4-{4-[4-fluoro-2-(2,2,2-trifluoroethoxy)phenyl]-1,3-dihydro-2H-pyrrolo[3,4-c]pyridin-2-yl}-N,N-dimethylbenzamide]	90
